Read-outs that look alike come from different tables or passages of the source.
Assays:
[1] = Hypotensive effect on experimental hypertension caused by DOCA; assay type: in vivo, male wistar rats
Description: (A) Hypotensive effect on experimental hypertension caused by administration of desoxycorticosterone (hereinafter referred to as "DOCA"):
Right kidneys were removed from 6-week-old male wistar rats, and a 1% aqueous solution of sodium chloride was given as drinking water and 12.5 mg/Kg of DOCA was intramuscularly injected every week. The change of the blood pressure was examined over a period of 6 weeks.
48 rats, each having one kidney removed, were divided into 6 groups, each consisting of 8 rats, and each group was placed in a cage. With respect to each group, a gum arabic solution was administered to 2 rats as non-administered control animals. 20 mg/Kg of TN was administered once a day to each of two rats among the remaining 6 rats, and 100 mg/Kg of TN was administered once a day to each of two rats among the remaining 4 rats. 88 mg/Kg of TA was administered once a day to each of the remaining two rats. TN and TA were administered in the form of a suspension in gum arabic. The blood pressure was measured by a Shimazu type systolic pressure continuous recording apparatus detecting pulse waves of rats taken in a thermostat fixed box maintained at 30° C.

[2] = Experiment on young SHR (rats of spontaneous hypertension); assay type: in vivo, rats (7-week-old female SHR); details: 88 mg/kg TA
Description: Experiments were conducted by using two classes of rats of spontaneous hypertension (hereinafter referred to as "SHR"; provided by Nippon Rat K.K.) differing in the age. In the first experiment, 9-month-old chronic […] SHR (hereinafter referred to as "old SHR"), and in the second experiment, 7-week-old SHR in which hypertension was advancing (hereinafter referred to as "young SHR") was used.
(B) Experiment on Young SHR:
72 of 7-week-old female SHR (having a body weight of 130 to 175 g) were divided into 9 cages, each consisting of 8 rats. Service water was given as drinking water to rats of two cages among these 9 cages, and these rats were compared with other rats which were given a 1% aqueous solution of sodium chloride as drinking water. In each of the […] cages of rats to which the sodium chloride solution was given, no agent was administered to 2 of 8 rats, 20 mg/Kg of TN was administered to another 2 rats, 100 mg/Kg of TN was administered to still another 2 rats, and 88 mg/Kg of TA was administered to the remaining 2 rats.
After 2 weeks' feeding with the sodium chloride solution, administration was conducted once a day. Within 2 weeks from the start of administration,3 rats in the Control (non-administered) group, one rat in the 20 mg/Kg TN administered group, 3 rats in the 100 mg/Kg TN administered group, 3 rats in the 88 mg/Kg TA administered group and 4 rats in the service water given group were dead. In view of the body weight decrease and the snivel secretion and from the results of autopsy, it was judged that each of them died of pneumonia. The rats that died prior to initiation of the administration were not taken in account in evaluating the experimental results.

Acute toxicity on mice = assay type: in vivo
Description: (§1) Toxicities of TN and TA will now be described.

[3] = Subacute and chronic toxicities; assay type: in vivo; details: rats 100 to 1000 mg/Kg and beagles 100 mg/Kg daily, 3 or 6 months
Description: (B) Subacute and Chronic Toxicities:
TN and TA were separately administered to rats and beagles at daily doses of 100 to 1000 mg/Kg and 100 mg/Kg, respectively, continuously for 3 or 6 months.

[4] = Teratogenetic property test; assay type: in vivo, pregnant mice or pregnant rats; details: orally, 100 to 1200 mg/Kg
Description: (C) Teratogenetic Property Test:

Acute toxicity on rats = assay type: in vivo; details: for LD50: rats
Description: as §1

[5] = cited from earlier work

CC(=O)Oc1c(C)c(C)c2c(c1C)CCC(C)(CCCC(C)CCCC(C)CCCC(C)C)O2 (racemic) [TA, dl-α-tocopheryl acetate]
number of rats with blood pressure elevated to 170 mm Hg or higher ([1]; 88 mg/kg of TA once a day, among 12 rats (control 9 among 11)): 4 rats | hypotensive effect, overall conclusion from pharmacological tests on animals ([1]; DOCA rats, old SHR, young SHR): have a hypotensive effect | dead rats within 6 weeks from the start of the administration ([2]; among 11 rats, control 5 among 11): 3 rats | dead rats within 2 weeks from the start of administration ([2]; judged pneumonia, control 3): 3 rats | LD50 (Acute toxicity on mice; I.M., female): > 15000 mg/kg | LD50 (Acute toxicity on mice; I.V., female): > 1000 mg/kg | LD50 (Acute toxicity on mice; P.O., female): > 20000 mg/kg | LD50 (Acute toxicity on mice; S.C., female): > 20000 mg/kg | LD50 (Acute toxicity on mice; mouse, in vivo, im, I.M., male, read-out: LD50): > 15000 mg/kg | LD50 (Acute toxicity on mice; mouse, in vivo, ip, I.P., male, read-out: LD50): > 4000 mg/kg | LD50 (Acute toxicity on mice; mouse, in vivo, iv, I.V., male, read-out: LD50): > 1000 mg/kg | LD50 (Acute toxicity on mice; mouse, in vivo, po, P.O., male, read-out: LD50): > 20000 mg/kg | LD50 (Acute toxicity on mice; mouse, in vivo, sc, S.C., male, read-out: LD50): > 20000 mg/kg | deaths [3]: no deaths | haematological, haemetobiological and histological surveys [3]: no manifestation of the toxicity was observed | inhibition of the body weight [3]: inhibition of the body weight was not observed | influences on mother animals, embryos and newborn babies [4]: no influences were observed | teratogenetic property [4]: no teratogenetic property | animals killed in acute toxicity test (Acute toxicity on rats; mice and rats, maximum amount that can be administered): no test animal was killed | LD50 (Acute toxicity on rats; rat, in vivo, im, I.M., male, read-out: LD50): > 10000 mg/kg | LD50 (Acute toxicity on rats; rat, in vivo, ip, I.P., male, read-out: LD50): > 2000 mg/kg | LD50 (Acute toxicity on rats; rat, in vivo, iv, I.V., male, read-out: LD50): > 250 mg/kg | LD50 (Acute toxicity on rats; rat, in vivo, po, P.O., male, read-out: LD50): > 15000 mg/kg | LD50 (Acute toxicity on rats; rat, in vivo, sc, S.C., male, read-out: LD50): > 15000 mg/kg | LD50 (Acute toxicity on rats; I.M., female): > 10000 mg/kg | LD50 (Acute toxicity on rats; I.V., female): > 250 mg/kg | LD50 (Acute toxicity on rats; P.O., female): > 15000 mg/kg | LD50 (Acute toxicity on rats; S.C., female): > 15000 mg/kg

NNc1nncc2ccccc12 [Hydralazine]
effect on the heart ([5]; prior art): increases the amount of blood fed to the heart and the pulse frequency and thus increases the load on the heart | hypotensive activity ([5]; prior art): high hypotensive activity | undesirable side effects ([5]; prior art): multiple arthritis resembling rheumatic arthritis and lupus erythematosus

COC(=O)[C@H]1[C@H]2C[C@@H]3c4[nH]c5cc(OC)ccc5c4CCN3C[C@H]2C[C@@H](OC(=O)c2cc(OC)c(OC)c(OC)c2)[C@@H]1OC [Reserpine]
undesirable side effects ([5]; prior art): inhibition of the central nervous system, such as asthenic feeling

NS(=O)(=O)c1cc2c(cc1Cl)NCNS2(=O)=O [hydrochlorothiazide]
undesirable side effects ([5]; in vivo): hypokalemia, hypercirycemia and manifestation of latent diabetes | hypotensive activity ([5]; prior art): moderate hypotensive activity

C[C@](N)(Cc1ccc(O)c(O)c1)C(=O)O [l-α-Methyl Dopa]
hypotensive activity ([5]; prior art): high hypotensive activity | undesirable side effects ([5]; prior art): mammary hypertrophy, paraesthesia, nightmare and Parkisonism

CC(COc1ccccc1)N(CCCl)Cc1ccccc1 (stereo not shown) [phenoxybenzamine]
undesirable side effects ([5]; prior art): orthostatic hypotensive asthenia and tachycardia
